The values below come from PubChem BioAssay (NCI).

Molecules are shown by their SMILES. Where “and” joins values, the source holds several entries; their conditions need not be identical. Equal values may be shown once.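 Five compound concentrations were applied to cells in 96-well plates for 48 hours; endpoints were derived by simple linear interpolation of the resulting dose-response curve. Abbreviation: GI50, concentration required for 50% inhibition of growth. TGI denotes the concentration required for complete inhibition of growth.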

This experiment concerns MDA-MB-468 breast. The experiment in a line: growth of human tumour cells (NCI), 48 h.

`COc1ccc(-c2nn(-c3ccc(NC(=O)Nc4cc(C(F)(F)F)cc(C(F)(F)F)c4)cc3)cc2-c2ccncc2)cc1Cl`: the GI50 is 1800 nM and the TGI is 6000 nM.
In the case of `Nc1nc(F)nc2c1ncn2C1OC(CO)C(O)C1O` (configuration not stated), the GI50 is above 85600 nM and the TGI was above 100000 nM.
The matching figures for `O=c1cc(NC2CCN(CCCc3ccccc3)CC2)c2cc(Cl)ccc2o1`: 5820 nM and 21800 nM.
Regarding `CC(C)C[C@H](NC(=O)/C=C/Cn1ccc2ccccc2c1=O)B(O)O`, the GI50 was 681 nM and the TGI stood at 4710 nM.
Consider `Nc1ccc(-c2nc3ccc(Cc4ccc5nc(-c6ccc(N)cc6)[nH]c5c4)cc3[nH]2)cc1`, for which the GI50 was 1470 nM and the TGI turned out to be 2900 nM.
In the case of `CCOc1cc(C(C)(C)C)ccc1C1=N[C@@](C)(c2ccc(Cl)cc2)[C@@](C)(c2ccc(Cl)cc2)N1C(=O)N1CCN(CCCS(C)(=O)=O)CC1`, the GI50 is 2530 nM and the TGI was determined as 7920 nM.
`Cc1ncc(CCCN(C)C)cc1Nc1ncc2c(n1)-c1ccc(C(F)(F)F)cc1NC(=S)C2`: the GI50 is below 21.2 nM and the TGI turned out to be 1580 nM.
The matching figures for `O=S(=O)(Nc1cc(Sc2cccc3cccnc23)c(O)c2ccccc12)c1ccccc1`: 1290 nM and 3200 nM.
In the case of `COc1cccc2c(=O)c3c(sc12)c(N1CCNCC1)nc1ccccc13`, the GI50 was 1660 nM and the TGI came out at 3300 nM.
Regarding `COc1ccc(/C=C/C(=O)C(CC2CCC2)C(=O)/C=C/c2ccc(OC)c(OC)c2)cc1OC`, the GI50 is 1590 nM and the TGI stood at 3690 nM.
For `C[C@H](O)C(=O)N1CCC(CCn2c(Sc3cc4c(cc3Br)OCO4)nc3c(N)ncnc32)CC1`, the GI50 is 482 nM and the TGI amounted to 2920 nM.
On to `Cc1ccc(-c2nc3ccc(Cl)cc3c(=O)n2N2C(=O)CSC2c2ccccc2Cl)cc1` (configuration not stated), for which the GI50 was 57600 nM and the TGI is above 100000 nM.
The matching figures for `C#CCOc1cccc(-c2nc(N)nc(Nc3ccccc3SSc3ccccc3Nc3nc(N)nc(-c4cccc(OCC#C)c4)n3)n2)c1`: above 33300 nM and above 33300 nM.
With `CN(C)CCN1C(=O)c2ccc3c4c(ccc(c24)C1=O)C(=O)N(CCN=C=S)C3=O`, the GI50 was 26.3 nM and the TGI is 101 nM.
For `CN(C)C(=O)[C@H](O)[C@H](Cc1ccccc1)NC(=O)c1cc2cc(Cl)ccc2[nH]1`, the GI50 was 20100 nM and the TGI worked out at 77600 nM.
Regarding `CC/C=C\C[C@H]1C/C=C2/C(=O)C=C[C@@H]2C/C=C\CCCC(=O)O1`, the GI50 was 854 nM and the TGI came to 2730 nM.
In the case of `COc1cc(C(=O)c2cc(C)c3[nH]c4ccc(C)cc4c3c2C)cc(OC)c1OC`, the GI50 was below 10 nM and the TGI was 3680 nM.
Regarding `COc1ccc(/C=N/NC(=O)c2[nH]c3ccc(Br)cc3c2-c2ccccc2)o1`, the GI50 was 58.8 nM and the TGI is 3360 nM.
Taken in the same sequence, the figures for `CCn1c(SCc2ccc(C)cc2)nnc1-c1nn(-c2ccc(Cl)cc2Cl)c(-c2ccc(Cl)cc2)c1C` were 623 nM and 10600 nM.
Taken in the same sequence, the figures for `COC(=O)[C@H]1[C@@H](O)[C@@]2(O)c3c(OC)cc(OC)cc3O[C@@]2(c2ccc(OC)cc2)[C@@H]1c1ccccc1` were 7.83 nM and 116 nM.
As to `CCCCCCCCCCCCCCCCCCOc1ccccc1CC(=O)OCC[N+]1(C)CCCC1`, the GI50 was 1700 nM and the TGI turned out to be 4510 nM.
As for `COc1cc(/C=C/c2cc(/C=C/c3ccc(O)c(OC)c3)n(C(=O)Nc3ccc(C)cc3C)n2)ccc1O`, the GI50 is 242 nM and the TGI came out at 750 nM.
For `Cn1c(=O)c(Cc2ccccc2F)cc2cnc(NC3CCOCC3)nc21`, the GI50 is above 25000 nM and the TGI is above 25000 nM.
Consider `CC(C)(C[C@H]1CN(S(=O)(=O)c2cccc(C(F)(F)F)c2)c2cc(-c3cc(F)cc(OC(F)F)c3)ccc2O1)C(=O)O`, for which the GI50 is 3410 nM and the TGI is 25100 nM.
On to `CC1=C[C@H]2c3c(c(O)c(O)c4oc(-c5ccccc5)cc(=O)c34)[C@H](c3cc(O)c(O)c4oc(-c5ccccc5)cc(=O)c34)[C@H]2C(C)(C)C1`, for which the GI50 was 1380 nM and the TGI was 4760 nM.
The matching figures for `Cc1ccc2[nH]c(O)c(N=Nc3ccc(S(N)(=O)=O)cc3)c2c1`: 6670 nM and above 25000 nM.
For the compound `COc1ccc(C(=O)COc2ccc(/C=C3\COc4ccc(OC)cc4C3=O)cc2)cc1`, the GI50 was 18000 nM and the TGI came out at 88200 nM.
For `CC1(C)[C@@H](OC(N)=O)[C@H]2O[C@H]2[C@]2(C=O)[C@H]3CC[C@]4(C)[C@@H](c5ccc(=O)oc5)[C@@H](Cl)C[C@]4(O)C3=CC[C@@H]12`, the GI50 was 6.2 nM and the TGI worked out at 17.8 nM.
Regarding `Cc1[nH]c2ccccc2c(=O)c1CC=C(Cl)Cl`, the GI50 is 18800 nM and the TGI was above 100000 nM.
Take `CCc1nc(C(N)=O)c(Nc2ccc(N3CCC(N4CCN(C)CC4)CC3)c(OC)c2)nc1NC1CCOCC1`: the GI50 was 12200 nM and 14000 nM; the TGI was 27700 nM and > 2370 nM and 31800 nM.
Take `Nc1ccc2cc3ccc(N)cc3nc2c1`: the GI50 was 531 nM and the TGI turned out to be 2220 nM.
On to `O=C(/C=C\c1ccc(NCc2ccc(C(=O)O)cc2)cc1)CCl`, for which the GI50 is 7360 nM and the TGI amounted to 23800 nM.
In the case of `COc1cc2[nH]c(C(=O)c3cc(OC)c(OC)c(OC)c3)c(N)c2cc1C#CC1CC1`, the GI50 was 2080 nM and the TGI was 8280 nM.
With `O=C1Nc2ccc(F)cc2/C1=C/c1ccc[nH]1`, the GI50 is 203 nM and the TGI amounted to 1500 nM.
`CCOC(=O)c1sc(NCC(=O)Nc2cccc([N+](=O)[O-])c2)c(C(=O)OCC)c1C`: the GI50 was 670 nM and the TGI is 2230 nM.
Consider `COc1ccc(CCN2COc3c([C@@H](C)CCC=C(C)C)ccc(C)c3C2)cc1OC`, for which the GI50 was 1230 nM and the TGI worked out at 2950 nM.
